# How the values were obtained:
# schizophrenia [1] = assay: case history: schizophrenia, ethyl-EPA added to haloperidol; type: in vivo, human; details: person
# Description: A person had become ill with schizophrenia. They had florid hallucinations and paranoia, but also withdrew themself from most of their friendships and lived alone. […] They lived alone, ceased to communicate with most of their friends, and went around to town alone and muttering to […]. Their psychiatrist heard about ethyl-EPA and decided to try it in addition to the standard drug. After eight weeks on treatment with 4 g/day their outlook was transformed. […] They were even persuaded to go on holiday with their family where they enjoyed themself and made new friends. The EPA therefore reversed the extreme withdrawal which appeared to have been exaggerated by haloperidol.
# [2] = target: human brain enzyme FACL-4 (Homo sapiens, UniProt O60488); details: cited from earlier work
# schizophrenia [3] = assay: case history: schizophrenia, E-EPA added to clozapine; type: in vivo, human; details: patient not responding to typical neuroleptics; clozapine up to 900 mg/day
# Description: This mechanism is thought to be responsible for their rapid effects on the so-called “positive” symptoms of schizophrenia (such as hallucinations, delusions and thought disorder). […] The D2 blocking action is also responsible for many of the adverse effects of these drugs, which include extrapyramidal movement disorders, excess prolactin secretion, and tardive dyskinesias. Examples of widely used drugs in this class include chlorpromazine, thioridazine, haloperidol, pimozide, flupenthixol and sulpiride.
# These may include blockade of one or more of the other dopamine receptors such as D1, D3 or D4, and also usually including blockade of one or more classes of serotonin receptors. […] They may also have actions at other receptors, including histamine, glutamate and acetyl choline receptors.
# The patient was treated with clozapine, eventually reaching a maximum dose of 900 mg/day.
# E-EPA in a dose of 2 g/day was then administered in addition to clozapine.
# [4] = system: attention deficit hyperactivity disorder (ADHD); assay: case report: child with ADHD; type: in vivo, human; details: before ethyl-EPA
# Description: Attention deficit hyperactivity disorder (ADHD): ADHD and closely related conditions like attention deficit disorder and conduct disorders are commonly found in children. Occasionally they may be successfully treated by behaviour modification and other psychological techniques or by careful attention to diet. However, in most cases, paradoxical treatment with one of the stimulant drugs related in their action to amphetamine is required. Methylphenidate and dextroamphetamine are the commonest used. A child with serious ADHD since infancy was driving their parents to distraction. […] The parents were concerned about the long term consequences of stimulant drugs. The child was therefore tried on two capsules of pure ethyl-EPA per day. […] The child became less tense and irritable, less hyperactive, more open to reasoned discussion and enormously less disruptive both at home and school. Even when their methylphenidate was stopped, their behaviour remained improved.
# [5] = system: schizophrenia, drug-induced obesity; type: in vivo, human; details: in vivo
# Description: Obesity is another common side effect of antipsychotropic drugs. In this respect some of the newer drugs like olanzapine frequently seem to be even worse offenders than the typical neuroleptics. […] They preferred the olanzapine but it still left their withdrawn and unable to communicate normally with friends or family. To their distress it caused them to put on over 10 kg in weight. Their doctor decided to test ethyl-EPA in addition to olanzapine.
# tardive dyskinesia = assay: patients with neuroleptic-induced tardive dyskinesia treated with EPA; type: in vivo, human; details: several patients
# Description: The typical neuroleptics in some patients produce a distressing condition called tardive dyskinesia. […] The patient experiences uncontrollable twitching and other movements. These can affect any part of the body but commonly affect the face where they are particularly distressing. Facial twitches and movements, including protrusions and uncontrollable movements of the tongue occur. […] Movements have become substantially less and in some patients have disappeared completely.
# phospholipase A2 = details: cited from earlier work
# [6] = system: patients who had schizophrenia; assay: randomised, placebo-controlled study of ethyl-EPA in clozapine-treated patients with schizophrenia (PANSS, MADRS); type: in vivo, human; details: 12 weeks, patients on clozapine
# Description: Although the case reports of the effects of ethyl-EPA are convincing and in some cases dramatic, unequivocal proof of its efficacy must come from randomised, placebo-controlled trials. We therefore set up a randomised, placebo-controlled study of EPA in 34 patients who had schizophrenia according to the criteria set out in the American Psychiatric Association's Diagnostic and Statistical Manual of Mental Disorders (4th edition, DSM-IV). All of these patients were being treated with clozapine drugs but all remained seriously ill, with schizophrenic symptoms. Like many schizophrenics, some of the patients were also depressed. All were assessed at baseline and after 12 weeks using the Positive and Negative Symptom Scale for Schizophrenia (PANSS) and the Montgomery-Asberg Depression Rating Scale (MADRS). After giving informed consent, all the patients were randomised on a double blind basis to one of three groups: placebo, or 1 g or 2 g of ethyl-EPA per day in the form of 0.5 g capsules. Placebo and EPA capsules were indistinguishable from one another in appearance. All the patients improved to some degree so all the changes are percentage improvements
# Chain of human brain enzyme FACL-4 (O60488 whole entry): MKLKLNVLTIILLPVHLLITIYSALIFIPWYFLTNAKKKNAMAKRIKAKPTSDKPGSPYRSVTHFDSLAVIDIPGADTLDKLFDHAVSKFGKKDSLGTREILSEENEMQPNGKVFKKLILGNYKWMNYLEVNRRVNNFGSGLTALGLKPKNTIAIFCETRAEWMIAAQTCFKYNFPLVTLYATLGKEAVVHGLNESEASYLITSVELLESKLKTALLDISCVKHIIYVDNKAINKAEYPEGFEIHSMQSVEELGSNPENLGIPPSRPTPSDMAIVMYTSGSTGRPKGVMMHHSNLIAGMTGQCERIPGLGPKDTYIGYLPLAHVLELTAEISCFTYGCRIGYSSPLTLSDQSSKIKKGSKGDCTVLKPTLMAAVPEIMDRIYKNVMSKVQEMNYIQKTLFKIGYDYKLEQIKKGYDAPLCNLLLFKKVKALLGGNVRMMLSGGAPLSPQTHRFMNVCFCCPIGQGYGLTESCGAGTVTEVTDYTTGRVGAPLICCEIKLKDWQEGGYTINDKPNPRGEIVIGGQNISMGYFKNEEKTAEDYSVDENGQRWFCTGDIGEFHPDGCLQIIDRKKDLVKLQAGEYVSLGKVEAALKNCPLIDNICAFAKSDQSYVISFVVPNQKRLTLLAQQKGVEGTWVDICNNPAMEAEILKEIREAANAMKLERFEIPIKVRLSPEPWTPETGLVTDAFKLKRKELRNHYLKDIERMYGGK
compound,measurement,setting,value
"O=C(CCCN1CCC(O)(c2ccc(Cl)cc2)CC1)c1ccc(F)cc1 [haloperidol, reference compound]","effect on hallucinations, drug alone",schizophrenia [1],stopped most of the hallucinations
"CCCCC/C=C\C/C=C\C/C=C\C/C=C\CCCC(=O)O [AA, arachidonic acid, reference compound]",FACL-4 activity for AA relative to DHA,[2]; relative to DHA,more than twice as great as for DHA
"OCCOCCN1CCN(C2=Nc3ccccc3Sc3ccccc32)CC1 [quetiapine, reference compound]",clinical response to neuroleptic alone,schizophrenia [3],no substantial benefit
"Cc1nc2n(c(=O)c1CCN1CCC(c3noc4cc(F)ccc34)CC1)CCCC2 [risperidone, reference compound]",clinical response to neuroleptic alone,schizophrenia [3],no substantial benefit
"COC(=O)C(c1ccccc1)C1CCCCN1 (stereo not drawn) [methylphenidate, reference compound]",control of ADHD,[4],only partially controlled
"Cc1cc2c(s1)Nc1ccccc1N=C2N1CCN(C)CC1 [olanzapine, reference compound]",weight put on,[5],over 10 kg
"CC/C=C\C/C=C\C/C=C\C/C=C\C/C=C\CCCC(=O)O [EPA, all cis (or all z) 5,8, 11, 14, 17-eicosapentaenoic acid]",tardive dyskinesia,tardive dyskinesia,substantial relief from tardive dyskinesia
same,affinity for FACL-4,[2],unusually high affinity
same,"FACL-4 activity for EPA, greater than for AA",[2]; relative to AA,50%
same,inhibition of phospholipase A2,phospholipase A2,known to inhibit phospholipase A2
same,"MADRS, percentage improvement from baseline",[6]; 1 g ethyl-EPA per day,35.7%
same,"Total PANSS, percentage improvement from baseline",[6]; 1 g ethyl-EPA per day,18.8%
same,"negative PANSS, percentage improvement from baseline",[6]; 1 g ethyl-EPA per day,22.7%
same,"positive PANSS, percentage improvement from baseline",[6]; 1 g ethyl-EPA per day,20.0%
same,"MADRS, percentage improvement from baseline",[6]; 2 g ethyl-EPA per day,35.7%
same,"Total PANSS, percentage improvement from baseline",[6]; 2 g ethyl-EPA per day,17.1%
same,"negative PANSS, percentage improvement from baseline",[6]; 2 g ethyl-EPA per day,22.7%
same,"positive PANSS, percentage improvement from baseline",[6]; 2 g ethyl-EPA per day,25.0%
